For this experiment, the target named is T1, human Nav1.5 channels (Homo sapiens, UniProt Q14524).
T1 construct: expressed in transfected cells; host or cells: HEK293
Nature of the experiment: FRET assay, human Nav1.5 (EFS on FDSS). The format is cell-based. The following applies: HEK293 cells expressing human Nav1.5, read-out: activities against Nav1.5. As for the experimental part:
The inhibitory activities of compounds against voltage gated sodium channels are determined by methodology well known in the art.
The ability of the aryl substituted carboxamide derivatives of the formula (I) to inhibit the NaV1.3, Nav1.7 and Nav1.5 channels is measured by Fluorescence Resonance Energy Transfer (FRET) assay and electrophysiology assay described below.
This screen is used to determine the effects of compounds on human Nav1.3, human Nav1.7, and human Nav1.5 channels, utilising electrical field stimulation (EFS) system in 96-well plate format on FDSS (Hamamatsu Photonics) platform. The change of membrane potential is monitored with FRET dye pair, oxonol (DiSBAC2(3)) and coumarin (CC2-DMPE).
Each HEK293 cells expressing human Nav1.3 channels and HEK293 cells expressing human Nav1.5 channels are grown in T225 flasks, in a 5% CO2 humidified incubator to about 80% confluence. Media composition consists of Dulbecco's Modified Eagle Medium (high glucose), 10% FCS, 100 units/mL Penicillin, 100 microgram/mL Streptomycin and 500 microgram/mL Geneticine. […]
The data are analyzed and reported as normalized ratios of intensities measured at […]. […]
This analysis is performed using a computerized specific program designed for FDSS generated data. Fluorescence ratio values are plotted using XLfit to determine an IC50 value for each compound.

Where only a bound is given, the exact number is not on record here.

T1 sequence (Q14524 whole entry): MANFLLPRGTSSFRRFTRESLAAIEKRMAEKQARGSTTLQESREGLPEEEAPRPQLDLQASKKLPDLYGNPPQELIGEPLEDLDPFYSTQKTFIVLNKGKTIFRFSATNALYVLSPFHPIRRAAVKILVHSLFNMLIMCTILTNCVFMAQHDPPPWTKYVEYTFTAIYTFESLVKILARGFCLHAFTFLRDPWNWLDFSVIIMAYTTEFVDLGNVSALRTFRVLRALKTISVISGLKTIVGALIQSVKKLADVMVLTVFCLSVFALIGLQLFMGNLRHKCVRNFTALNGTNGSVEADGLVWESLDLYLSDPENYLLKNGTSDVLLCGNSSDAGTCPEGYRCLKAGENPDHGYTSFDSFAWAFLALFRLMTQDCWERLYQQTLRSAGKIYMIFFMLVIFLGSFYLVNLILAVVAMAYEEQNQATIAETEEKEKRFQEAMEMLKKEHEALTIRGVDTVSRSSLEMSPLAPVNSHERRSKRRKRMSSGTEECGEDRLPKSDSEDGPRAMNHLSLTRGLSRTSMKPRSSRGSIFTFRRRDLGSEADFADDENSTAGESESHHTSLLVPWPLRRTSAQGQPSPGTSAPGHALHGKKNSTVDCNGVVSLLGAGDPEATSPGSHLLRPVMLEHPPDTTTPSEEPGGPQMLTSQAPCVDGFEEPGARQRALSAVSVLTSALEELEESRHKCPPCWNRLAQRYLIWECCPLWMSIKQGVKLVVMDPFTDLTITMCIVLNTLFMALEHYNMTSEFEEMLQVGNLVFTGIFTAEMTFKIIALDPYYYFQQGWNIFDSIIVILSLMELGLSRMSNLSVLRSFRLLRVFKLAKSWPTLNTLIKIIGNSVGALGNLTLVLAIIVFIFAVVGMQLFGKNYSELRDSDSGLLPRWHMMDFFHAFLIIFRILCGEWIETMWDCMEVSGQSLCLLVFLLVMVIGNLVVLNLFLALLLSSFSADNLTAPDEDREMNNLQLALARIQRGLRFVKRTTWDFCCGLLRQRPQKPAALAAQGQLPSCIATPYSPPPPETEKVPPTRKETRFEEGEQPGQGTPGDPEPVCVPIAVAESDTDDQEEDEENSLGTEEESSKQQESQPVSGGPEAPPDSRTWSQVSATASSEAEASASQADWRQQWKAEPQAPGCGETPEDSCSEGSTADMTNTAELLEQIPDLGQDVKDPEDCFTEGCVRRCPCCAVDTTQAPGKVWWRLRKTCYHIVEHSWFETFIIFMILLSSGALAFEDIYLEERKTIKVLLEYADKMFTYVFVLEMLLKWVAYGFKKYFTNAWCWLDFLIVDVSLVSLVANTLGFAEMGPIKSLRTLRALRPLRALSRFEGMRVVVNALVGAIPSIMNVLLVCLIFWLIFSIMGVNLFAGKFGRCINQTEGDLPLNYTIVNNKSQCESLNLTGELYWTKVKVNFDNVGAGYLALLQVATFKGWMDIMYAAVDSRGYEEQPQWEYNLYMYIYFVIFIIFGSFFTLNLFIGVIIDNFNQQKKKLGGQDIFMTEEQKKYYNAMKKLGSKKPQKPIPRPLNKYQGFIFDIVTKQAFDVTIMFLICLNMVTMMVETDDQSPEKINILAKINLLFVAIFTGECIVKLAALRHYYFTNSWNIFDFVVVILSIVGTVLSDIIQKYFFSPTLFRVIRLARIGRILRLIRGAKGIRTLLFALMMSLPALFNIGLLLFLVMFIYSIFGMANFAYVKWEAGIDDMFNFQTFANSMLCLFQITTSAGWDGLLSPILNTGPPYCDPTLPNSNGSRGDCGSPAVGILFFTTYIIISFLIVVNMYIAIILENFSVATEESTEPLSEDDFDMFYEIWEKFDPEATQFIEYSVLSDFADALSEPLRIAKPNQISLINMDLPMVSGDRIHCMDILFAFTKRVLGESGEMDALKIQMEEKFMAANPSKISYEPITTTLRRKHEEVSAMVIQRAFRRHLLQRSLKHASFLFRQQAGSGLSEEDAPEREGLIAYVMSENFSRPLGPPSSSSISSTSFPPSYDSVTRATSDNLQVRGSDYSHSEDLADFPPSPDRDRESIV

Regarding `CC(=O)Nc1cc(C(=O)NC(C)c2ccc(OCC(F)(F)F)nc2)ccn1` (single isomer, unassigned; (-)) [Example 1, (−)-2-acetamido-N-(1-(6-(2,2,2-trifluoroethoxy)pyridin-3-yl)ethyl)isonicotinamide], the IC50 is > 30 µM.

These data come from patent US9302991B2, “Arylamide derivatives as TTX-S blockers” (RaQualia Pharma Inc., priority 2010, dated 2016).
